Assay results published in PMC12136037, “Type II kinase inhibitors that target Parkinson’s disease–associated LRRK2” (Science Advances, 2025).
Several values for one entry are separate records, joined by “and”; a condition that tells them apart may be missing. Equal values may be shown once.

Target: T1, LRRK2^RCKW (Homo sapiens, UniProt Q5S007)
T1 construct: LRRK2 R1327 to E2527; His6-Z-tag (TEV cleavable) (N, cleaved yes); host or cells: Sf9 insect cells (baculovirus)
T1 sequence (Q5S007 1327-2527): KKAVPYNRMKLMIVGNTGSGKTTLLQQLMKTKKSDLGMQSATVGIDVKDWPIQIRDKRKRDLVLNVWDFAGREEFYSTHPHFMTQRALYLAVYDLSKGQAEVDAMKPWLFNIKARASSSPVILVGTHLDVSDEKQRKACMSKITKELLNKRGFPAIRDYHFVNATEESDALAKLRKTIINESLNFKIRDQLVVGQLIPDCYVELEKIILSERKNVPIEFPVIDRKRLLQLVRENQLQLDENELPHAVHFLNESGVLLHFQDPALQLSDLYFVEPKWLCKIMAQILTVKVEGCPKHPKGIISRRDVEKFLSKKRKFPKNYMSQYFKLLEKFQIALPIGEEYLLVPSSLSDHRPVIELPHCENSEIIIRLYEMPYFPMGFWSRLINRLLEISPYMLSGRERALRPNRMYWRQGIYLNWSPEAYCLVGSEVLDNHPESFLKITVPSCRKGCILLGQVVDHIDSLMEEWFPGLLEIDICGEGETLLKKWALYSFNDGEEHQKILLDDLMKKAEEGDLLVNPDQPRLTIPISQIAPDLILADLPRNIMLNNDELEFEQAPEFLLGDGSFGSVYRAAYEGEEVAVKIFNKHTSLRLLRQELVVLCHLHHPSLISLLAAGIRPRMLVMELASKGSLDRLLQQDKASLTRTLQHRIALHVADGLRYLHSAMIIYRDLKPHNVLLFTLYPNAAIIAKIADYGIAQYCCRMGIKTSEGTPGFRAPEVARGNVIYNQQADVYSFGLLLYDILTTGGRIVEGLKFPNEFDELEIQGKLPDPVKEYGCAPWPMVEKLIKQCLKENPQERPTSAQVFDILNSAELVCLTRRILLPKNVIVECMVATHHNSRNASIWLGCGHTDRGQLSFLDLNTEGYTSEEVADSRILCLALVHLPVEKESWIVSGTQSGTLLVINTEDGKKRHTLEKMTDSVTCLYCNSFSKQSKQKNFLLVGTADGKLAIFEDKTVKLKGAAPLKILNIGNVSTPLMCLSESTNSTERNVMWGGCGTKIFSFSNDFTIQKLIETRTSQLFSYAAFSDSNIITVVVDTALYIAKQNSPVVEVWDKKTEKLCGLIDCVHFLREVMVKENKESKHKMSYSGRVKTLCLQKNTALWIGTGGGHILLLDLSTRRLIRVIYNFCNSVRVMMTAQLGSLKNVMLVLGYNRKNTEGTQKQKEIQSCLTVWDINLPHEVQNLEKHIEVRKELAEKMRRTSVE
Assay: Single-molecule in vitro kinesin motility assay (TIRF) in the presence of LRRK2^RCKW
Type: biochemical
Details: for Raw data per microtubule (Figure 6c/6e, kinesin motility): individual microtubule values; for Mean each experiment (Figure 6c/6e raw data, kinesin motility): mean of each independent experiment; for rescue of kinesin motility in the presence of LRRK2^RCKW: MLi-2 5 μM, Ponatinib, RN277, RN341 10 μM
Method: The excitation and emission paths were filtered using appropriate single band-pass filter cubes (Chroma). […] Illumination and image acquisition was controlled by NIS Elements Advanced Research software (Nikon; www.microscope.healthcare.nikon.com/products/software/nis-elements/nis-elements-advanced-research, RRID:SCR_014329).
Single-molecule total internal reflection fluorescence (TIRF) motility experiments were performed in flow chambers using the microscopy setup described above. Flow chambers were made by adhering 1^1/2 thickness cover glass (Corning) to a SuperFrost Plus microscope slide (Electron Microscopy Sciences) with double sided tape. Before flow chamber assembly, cover glass was washed in 1 M HCl at 60°C for 1 hour and sonicated in 100% ethanol for 10 min to reduce nonspecific binding. […] In brief, flow chambers were functionalized by incubation with biotin-BSA (1 mg/ml; Sigma-Aldrich) for 3 min, followed by streptavidin (0.5 mg/ml) for a further 3 min. Taxol-stabilized microtubules were diluted 1:100 in motility assay buffer [30 mM Hepes (pH 7.4), 50 mM potassium acetate, 2 mM magnesium acetate, 1 mM EGTA, 10% glycerol, 1 mM DTT, and 20 μM Taxol] and incubated with the flow chamber for 3 min. Following incubation, the flow chambers with adhered microtubules were washed three times with LRRK2 buffer [20 mM Hepes (pH 7.4), 80 mM NaCl, 0.5 mM TCEP, 5% glycerol, 2.5 mM MgCl2, and 20 μM GDP] before incubation for 5 min with either LRRK2 buffer with DMSO or specified kinase inhibitors (0 nM LRRK2^RCKW) or LRRK2 buffer containing LRRK2^RCKW and DMSO or kinase inhibitors as indicated. In all cases, DMSO or the indicated kinase inhibitors were incubated with LRRK2 buffer in the presence or absence of LRRK2^RCKW for 10 min before addition and incubation within the flow chambers.
Data were blinded before analysis. Kymographs were generated from motility movies and quantified for percent motility using ImageJ V.2.14.0 as previously described ([22], [63]). Processive, diffusive, and nonmotile events were manually annotated for calculation of the percentage of processive events per microtubule. […] Single-molecule movements with multiple behaviors were counted as multiple events. For percentage motility per microtubule measurements, processive events were divided by total events (nonmotile, diffuse, and processive) per kymograph.
For statistical analysis, brightness and contrast were adjusted in ImageJ for all motility movies and kymographs. Statistical analyses were performed in GraphPad Prism 10 (www.graphpad.com/, RRID:SCR_002798). Specific statistical analysis descriptors, n values, and P values can be found in the corresponding figure legends. All TIRF experiments were analyzed from three independent technical replicates.

| Mean each experiment (Figure 6c/6e raw data, kinesin motility) (0nM RCKW, listed as RN277) | Mean each experiment (Figure 6c/6e raw data, kinesin motility) (100nM RCKW, listed as RN277) | SMILES | Raw data per microtubule (Figure 6c/6e, kinesin motility) (0nM RCKW, listed as RN277) | Raw data per microtubule (Figure 6c/6e, kinesin motility) (100nM RCKW, listed as RN277) | rescue of kinesin motility in the presence of LRRK2^RCKW | Raw data per microtubule (Figure 6c/6e, kinesin motility) (0nM RCKW, listed as RN341) | Mean each experiment (Figure 6c/6e raw data, kinesin motility) (0nM RCKW, listed as RN341) | Raw data per microtubule (Figure 6c/6e, kinesin motility) (100nM RCKW, listed as RN341) | Mean each experiment (Figure 6c/6e raw data, kinesin motility) (100nM RCKW, listed as RN341) | Raw data per microtubule (Figure 6c/6e, kinesin motility) (0nM RCKW) | Mean each experiment (Figure 6c/6e raw data, kinesin motility) (0nM RCKW) | Raw data per microtubule (Figure 6c/6e, kinesin motility) (100nM RCKW) | Mean each experiment (Figure 6c/6e raw data, kinesin motility) (100nM RCKW) |
| --- | --- | --- | --- | --- | --- | --- | --- | --- | --- | --- | --- | --- | --- |
| 80.5039 and 86.1765 and 85.4944 | 80.6738 and 80.7819 and 94.7927 | Cc1ccc(-n2nc(C(C)(C)C)cc2NC(=O)Nc2cccc(-c3c[nH]c4nc(Cl)nc(N5CCOCC5)c34)c2)cc1 [Compound 30] | 85.8824 and 78.125 and 82.8829 and 82.3529 and 90 and 85.1064 | 94.0299 and 83.3333 and 78.0142 and 83.1325 and 78.4314 and 95.5556 | rescued kinesin motility | – | – | – | – | – | – | – | – |
| – | – | CCSc1nc(NC)c2c(-c3cccc(NC(=O)Nc4cc(C(C)(C)C)nn4-c4ccc(C)cc4)c3)c[nH]c2n1 [Compound 32] | – | – | rescued kinesin motility | 77.4648 and 83.4483 and 76.4045 and 86.4865 and 75.9259 and 86.2385 | 79.9264 and 81.2062 and 81.8517 | 76.0563 and 76.9912 and 82.5688 and 91.0891 and 75.8621 and 85.9155 | 79.78 and 83.4756 and 80.9859 | – | – | – | – |
| – | – | Cc1ccc(C(=O)Nc2ccc(CN3CCN(C)CC3)c(C(F)(F)F)c2)cc1C#Cc1cnc2cccnn12 [Ponatinib, reference compound] | – | – | rescued kinesin motility | – | – | – | – | 83.3333 and 79.7203 and 85.1562 and 84.9462 and 85.9649 and 81.3725 | 82.4383 and 85.4556 and 82.3529 | 85.8491 and 82.7225 and 82.5758 and 84.8485 and 75 and 80.5556 | 82.6491 and 79.9242 and 83.2023 |
